# Reference: publication PMC10182601, “Biological evaluation of novel gemcitabine analog in patient-derived xenograft models of pancreatic cancer” (BMC Cancer, 2023)
# Structures can show the parent of a compound that is named as a salt.
# Legend:
# PPCL-46 cells [1] = test: Cell migration (wound) assay, PPCL-46; type: cell-based, human; conditions: PPCL-46, 5 µM, 48 h
# Description: (§1) A cell migration assay was conducted to determine the effect of 4NSG-SLN on PPCL-192 and PPCL-46 cell motility. The Ibidi cell culture inserts were used to grow the cells into two confluent monolayers separated by a "wound" for this assay. The cells were seeded into 24-well plates at a cell density of 2.5 × 10^5, 48 h at 37 °C. At 75% confluency, cells formed adherent monolayers on either side of the tissue culture insert. Before treatment, the cells were serum-starved by replacing complete media with base media (DMEM) and then further incubated for 48 h. After serum starvation, the inserts were gently removed to generate a gap or "wound" between the two confluent layers of cells, and the monolayers were washed with experimental media. Afterward, cells were exposed to 5 μM concentration of GemHCl and 4NSG-SLN treatments. Images of the cells invading the wound were then captured after 48 h with a Nikon Ti Eclipse microscope.
# PPCL-192 cells [2] = test: Cell migration (wound) assay, PPCL-192; type: cell-based, human; conditions: PPCL-192, 5 µM, 48 h
# Description: as §1
# [3] = system: PCa PDX tumor from Black patients; test: Tumor efficacy in PDX mice bearing tumors from Black PCa patients; type: in vivo; conditions: 30 mg/kg Gem equivalent i.v. twice weekly for 3 weeks
# Text: The implantation of surgical tumor tissue into immuno-compromised mice was described previously. A viable portion of resected tissue 2 × 2 mm in size was briefly isolated immediately from surgically resected primary PCa specimens (from Blacks and White patients) with care to minimize critical ischemia time. The PCa tissues were then implanted subcutaneously into an 8-week-old mouse (The Jackson Laboratory, Bar Harbor, ME). The xenografts were allowed to grow to a maximum diameter of 1.5 cm before passage and in vitro culture.
# Mice-bearing surgically implanted tumors obtained from Black and White patients with sizes of 70–100 mm^3 were randomized into groups as control, GemHCl, and 4NSG-SLN (n = 5/group). Baseline tumor volume was established, and dosing initiation began on day 1 with intravenous administration of 30 mg/kg Gem (twice weekly for 3 weeks) with an equivalent dose of GemHCl and 4NSG-SLN [42]. Once tumors became palpable, their volume was measured thrice per week, and the mice's weight was recorded twice weekly. Tumor volumes were measured using digital calipers and calculated using the following equation: V = (L*(W)^2)/2, where V is the volume (mm^3), W(width) is the smaller of two perpendicular tumor axes, and the L (length) is the larger of two vertical axes. Mean tumor volume growth curves were calculated for each treatment group.
# PPCL-192 cells [4] = test: Cell cycle distribution (PI, flow cytometry), PPCL-192; type: cell-based, human; conditions: 24 h
# Description: (§2) Cell cycle study was performed to determine the effect of 4NSG-SLN on the cell cycle; PPCL-192 and PPCL-46 cells (2 × 10^5 cells per well) were seeded in 6-well plates and cultured using DMEM medium supplemented with 10% FBS10 mM HEPES, 10% FBS, and 1% penicillin/streptomycin were seeded in 6-well plates and incubated at 37 °C. After the cells reached 75% confluence, they were exposed to different concentrations (5 μM,10 μM, and 20 µM) of GemHCl and 4NSG-SLN. After 24 h exposure, cells were harvested, washed with PBS, centrifuged at 300 × g for 5 min, resuspended the pellets in 100 μL of PBS, and passed through a 28 5/8 needle to disperse them into single cells. Fixation and permeation of cells were performed using cold 70% ethanol while vortexing. Cells were then stored at − 20 °C overnight. The cells were resuspended in 0.1 mg/mL RNase, stained with […] PI, and the phase distribution was examined using flow cytometry (FACScalibur-Becton Dickinson).
# PPCL-46 cells [5] = test: Cell cycle distribution (PI, flow cytometry), PPCL-46; type: cell-based, human; conditions: 24 h
# Description: as §2
smiles,measurement,setting,value
"Nc1ccn([C@@H]2O[C@H](CO)[C@@H](O)C2(F)F)c(=O)n1 [GemHCl, Gemcitabine hydrochloride]",Number of cells migrated,PPCL-46 cells [1],120 ± 3.8
same,Number of cells migrated,PPCL-192 cells [2],84 ± 3.1
same,Mean terminal tumor volume,"[3]; day 1, BT PDX mice",12.5 ± 6 mm^3
same,Mean terminal tumor volume,"[3]; day 3, BT PDX mice",25.0 ± 12 mm^3
same,Mean terminal tumor volume,"[3]; day 5, BT PDX mice",35.7 ± 18 mm^3
same,Mean terminal tumor volume,"[3]; day 7, BT PDX mice",73.0 ± 21 mm^3
same,Mean terminal tumor volume,"[3]; day 11, BT PDX mice",662. ± 198 mm^3
same,Mean terminal tumor volume,"[3]; day 13, BT PDX mice",767. ± 194 mm^3
same,Mean terminal tumor volume,"[3]; day 15, BT PDX mice",911. ± 152 mm^3
same,Mean terminal tumor volume,"[3]; day 17, BT PDX mice",990. ± 151 mm^3
same,Mean terminal tumor volume,"[3]; day 19, BT PDX mice",1129 ± 172 mm^3
same,Mean terminal tumor volume,"[3]; day 21, BT PDX mice",1204 ± 184 mm^3
same,Mean terminal tumor volume,"[3]; day 23, BT PDX mice",1456 ± 154 mm^3
same,Mean terminal tumor volume,"[3]; day 25, BT PDX mice",1681 ± 172 mm^3
same,%G1,"PPCL-192 cells [4]; PPCL-192, 5 μM",71.08%
same,%G2,"PPCL-192 cells [4]; PPCL-192, 5 μM",11.05%
same,%S,"PPCL-192 cells [4]; PPCL-192, 5 μM",17.87%
same,%G1,"PPCL-192 cells [4]; PPCL-192, 10 μM",74.75%
same,%G2,"PPCL-192 cells [4]; PPCL-192, 10 μM",9.59%
same,%S,"PPCL-192 cells [4]; PPCL-192, 10 μM",15.66%
same,%G1,"PPCL-192 cells [4]; PPCL-192, 20 μM",79.91%
same,%G2,"PPCL-192 cells [4]; PPCL-192, 20 μM",8.23%
same,%S,"PPCL-192 cells [4]; PPCL-192, 20 μM",11.86%
same,%G1,"PPCL-46 cells [5]; PPCL-46, 5 μM",72.75%
same,%G2,"PPCL-46 cells [5]; PPCL-46, 5 μM",12.56%
same,%S,"PPCL-46 cells [5]; PPCL-46, 5 μM",14.69%
same,%G1,"PPCL-46 cells [5]; PPCL-46, 10 μM",74.08%
same,%G2,"PPCL-46 cells [5]; PPCL-46, 10 μM",10.39%
same,%S,"PPCL-46 cells [5]; PPCL-46, 10 μM",15.53%
same,%G1,"PPCL-46 cells [5]; PPCL-46, 20 μM",76.35%
same,%G2,"PPCL-46 cells [5]; PPCL-46, 20 μM",9.54%
same,%S,"PPCL-46 cells [5]; PPCL-46, 20 μM",14.11%
